What was measured:
Assay type in all cases: in vivo
CD1 mice [1] = test: Oral antinociception in CD1 mice (tail flick), morphine/oxycodone alone, combined or as prodrugs; conditions: for oral antinociceptive activity (in words): CD1 mice
CD1 mice [2] = test: Intracerebroventricular (icv) antinociceptive activity in CD1 mice; conditions: for Icv ED50 values: CD1 mice, confidence range in brackets
CD1 mice [3] = test: 24-hour tolerance study after icv administration in CD1 mice; conditions: for MPE still present after 24 hours: 24 hours after icv administration
CD1 mice [4] = test: Behavioral observations after icv administration
Description: These curves enabled the determination of ED50 values. […] Some behavioral observations are also reported.
This behavior was not observed 10 minutes post injection. […] The animals were active for about two hours. After 24 hours, the animals maintained about 20% MPE.

Compound | oral antinociceptive activity (in words) (CD1 mice [1]; oral) | peak time (pt), time to maximum effect (CD1 mice [2]) [min] | Icv ED50 values (CD1 mice [2]) | MPE still present after 24 hours (CD1 mice [3]) | 24-h Tolerance Study, outcome (CD1 mice [3]; icv) | 24-h Tolerance Study, Day 1 (CD1 mice [3]; icv, Day 1) | 24-h Tolerance Study, Day 2 (CD1 mice [3]; icv, Day 2) | other results
COc1ccc2c3c1O[C@H]1/C(=N/OCC(=O)O[C@H]4C=CC5C6Cc7ccc(O)c8c7[C@@]5(CCN6C)[C@H]4O8)CC[C@@]4(O)C(C2)N(C)CC[C@]314 (stereo partly shown) [MLN II-31] | weak antinociceptive activity |  |  |  |  |  |  | maximum antinociception (CD1 mice [1]; 10 mg/kg, 4 hours after oral administration): 25%; antinociceptive activity (CD1 mice [1]; oral, measured from 15 min to 24 hours): 7-20 % of MPE
COc1ccc2c3c1O[C@H]1C(=NOC(=O)O[C@H]4C=CC5C6Cc7ccc(O)c8c7[C@@]5(CCN6C)[C@H]4O8)CC[C@@]4(O)C(C2)N(C)CC[C@]314 (stereo partly shown) [MLN II-45] | the same activity as when oxycodone and morphine are administered together in a 1:1 ratio |  |  |  |  |  |  | 
CN1CC[C@]23c4c5ccc(O)c4O[C@H]2[C@@H](NC(=O)COCCOCCn2cc(COCC(=O)N[C@H]4CC[C@@]6(O)C7Cc8ccc(O)c9c8[C@@]6(CCN7C)[C@H]4O9)nn2)CC[C@@]3(O)C1C5 [MLN II-83] |  | 20 | 0.190 nmol/mouse (0.065-0.558) | 20 ± 10 % MPE | seems to induce some tolerance | 67.95 ± 13.62 | 48.35 ± 15.68 | 
CN1CC[C@]23c4c5ccc(O)c4O[C@H]2[C@@H](NC(=O)COCCOCc2cn(CCOCCOCC(=O)N[C@@H]4CC[C@@]6(O)C7Cc8ccc(O)c9c8[C@@]6(CCN7C)[C@H]4O9)nn2)CC[C@@]3(O)C1C5 [MLN II-120] |  | 10 | 0.571 nmol/mouse (0.423-0.770) |  | No tolerance | 95.65 ± 4.65 | 91.38 ± 13.08 | animals showing barrel rolling and out stretched limbs (CD1 mice [4]; with 2 minutes of icv injection, not observed 10 minutes post injection): about 50%
CN1CC[C@]23c4c5ccc(O)c4O[C@H]2[C@@H](NC(=O)COCCOCCOCc2cn(CCOCCOCC(=O)N[C@H]4CC[C@@]6(O)C7Cc8ccc(O)c9c8[C@@]6(CCN7C)[C@H]4O9)nn2)CC[C@@]3(O)C1C5 [MLN II-121] |  | 10 | 0.272 nmol/mouse (0.164-0.453) | about 20 % MPE |  |  |  | behavioral observations (CD1 mice [4]; after icv administration): pacing and had straub tails; time the animals were active (CD1 mice [4]; after icv administration): about two; MPE still present after 24 hours (CD1 mice [3]; listed as MLN II- 121): 23.06 ± 4.30 % MPE; 48 hour tolerance test, outcome (CD1 mice [3]; icv, 48 hour test): No tolerance; 48 hour tolerance test, Day 1 (CD1 mice [3]; icv, 48 hour test, Day 1): 90.00 ± 10.69; 48 hour tolerance test, Day 2 (CD1 mice [3]; icv, 48 hour test, Day 2): 80.41 ± 12.06
CN1CC[C@]23c4c5ccc(O)c4O[C@H]2[C@@H](O)C=C[C@H]3[C@H]1C5 [Morphine, reference compound] |  | 10 | 2.68 nmol/mouse |  |  |  |  | peak time [pt] (CD1 mice [2]): 10 ′

From patent US8461171B2, “Hybrid opioid compounds and compositions” (QRxPHARMA Ltd., priority 2010, dated 2013)
